Assay results published in patent US5202266A, “25-hydroxy vitamin D3 derivatives, process for their production, and assay method using the same” (Asahi Kasei Kogyo Kabushiki Kaisha, priority 1987, dated 1993).

Experiments:
[1] = tested on: Anti-25-hydroxy vitamin D3 rabbit serum; assay: Radio immunoassay standard curve of 25-hydroxy vitamin D3 using the labeled derivative as tracer; type: binding; details: RIA; for sensitivity of assay, monoiodine vs diiodine [125I] labeling: FIG. 3; for standard curve result by methylene chain length n in R1: FIG. 4, n=1, n=2, n=3 compared
Experimental: A standard ethanol solution of 25-hydroxy vitamin D3 (256 pg/20 μl) was diluted stepwise by two-fold dilution to prepare 128 pg/20 μl, 64 pg/μl, 32 pg/20 μl, 16 pg/20 μl, 8 pg/20 μl, 4 pg/20 μl and 2 pg/20 μl samples.
Samples (20 μl) of each concentration hereinabove were pipetted into three tubes. Ethanol solutions, each 20 μl, of radioisotope iodine [^125 I]-labeled 25-hydroxy vitamin D3 derivative which contains as an antioxidant tocopherol was pipetted into each tube (20 μl, ca. 13,000 cpm).
Anti-25-hydroxy vitamin D3 rabbit serum diluted with tris buffer (approx. 15,000 dilution) pH 8.6, each 1 ml, was added to each tube. Each mixture in the tubes was stirred in a BORTEX mixer and allowed to stand at 5° C. overnight (20-24 hours). Glycine buffer (pH 8.6) suspending a mixture of dextran (T70) and active charcoal (1:10), each 300 μl) was added into the reaction tubes, and each was stirred by a BORTEX mixer and incubated at 5° C. for 1 hour. B-F separation was performed by centrifugation at 3,000 r.p.m. for 10 mins., and each supernatant solution (1 ml) was measured by an Autowell γ-counter for 1 min. The ratio of binding is calculated by the following equation: [formula] wherein (B) is the count number in each tube, (BL) is the count number measured by using 25-hydroxy vitamin D3 (1,000 pg/20 μl) in place of isotope ^125 I-labeled 25-hydroxy vitamin D3 derivative, and (Bo) is the count number measured by using 25-hydroxy vitamin D3 at zero concentration.
A standard curve was prepared by using tritium [^3 H]-labeled 25-hydroxy vitamin D3 derivative (26, 27-methyl-^3 H) as in the case of the [^125 I]-labeled derivative in (1) hereinabove.
Monoiodine [^125 I] labeling and diiodine [^125 I] labeling were compared according to the same method as hereinabove. In FIG. 3, -- -- -- indicates monoiodine [^125 I] labeling, and -- -- -- indicates diiodine [^125 I] labeling.
In formula [IV], assays using compounds having methylene R1 [--CH2)n--] wherein n=1, n=2 and n=3, are compared with each other.

[2] = Storage stability of [125I]-labeled derivative, checked by CPBA standard curve using DBP; type: physicochemical; details: 50% H2O-ethanol solution, -20° C., argon atmosphere, day 0, 21 and 49; FIG. 6
Experimental: A standard ethanol solution of 25-hydroxy vitamin D3 (1,024 pg/20 μl) was diluted stepwise by two-fold dilutions to prepare 32 pg/20 μl, 16 pg/20 μl, 8 pg/20 μl, 4 pg/20 μl, 2 pg/20 μl and 1 pg/20 μl.
Samples (20 μl) of each concentration hereinabove were pipetted into two tubes. Aliquots of an ethanol solution, each 20 μl, of radioisotope iodine [125I]-labeled 25-hydroxy vitamin D3 derivative, containing as an antioxidant tocopherol, were pipetted into each tube (20 μl, ca. 30,000 cpm) DBP diluted with tris buffer, pH 8.6 (approx. 500-1,000 dilution of DBP fraction in (1) hereinabove) each 500 μl, was stirred and allowed to stand at 4° C. for 16 hours.
Glycine buffer, pH 8.6, suspending a mixture of dextran (T70) and active charcoal (1:10) (each 30 μl), was added into the reaction tubes, stirred and incubated at 4° C. for 30 mins. B-F separation was made by centrifugation at 3,000 r.p.m. for 10 mins. at 4° C., and each supernatant solution 500 μl was measured by an Autowell γ-counterfor 1 min. The ratio of binding is calculated by the following equation: [formula] wherein (B) is the count number in each tube, (NSB)-- is the count number measured by using 25-hydroxy vitamin D3 (1,024 pg/20 μl) instead of ^12 5I-labeled 25-hydroxy vitamin D3 derivative and (Bo) is the count number measured by using 25-hydroxy vitamin D3 at zero concentration.
A 50% H2 O-ethanol solution of [^125 I] […]

Row | SMILES | sensitivity of assay, monoiodine vs diiodine [125I] labeling [1] | stability: change of standard curve after storage [2] | standard curve result by methylene chain length n in R1 [1]
1 | C=C1CC[C@H](OC(=O)CCNC(=O)CCc2ccc(O)c([125I])c2)C/C1=C/C=C1\CCC[C@]2(C)[C@@H]([C@H](C)CCCC(C)(C)O)CC[C@@H]12 [Example 4, 25-hydroxy vitamin D3 --3β--O--{3-[N-3-(4-hydroxy-3-iodo [^125 I]phenyl)propionyl]amino propionate}] | almost the same sensitivity | no changes of the standard curve within a range of 2-32 pg/Test were observed | 
2 | C=C1CC[C@H](OC(=O)CCNC(=O)CCc2cc([125I])c(O)c([125I])c2)C/C1=C/C=C1\CCC[C@]2(C)[C@@H]([C@H](C)CCCC(C)(C)O)CC[C@@H]12 [Example 5] | almost the same sensitivity | no changes of the standard curve within a range of 2-32 pg/Test were observed | 
3 | C=C1CC[C@H](OC(=O)CCNC(=O)CCc2ccc(O)c([125I])c2)C/C1=C/C=C1\CCC[C@]2(C)[C@@H]([C@H](C)CCCC(C)(C)O)CC[C@@H]12 [n=2] |  |  | good results as compared with n=1
4 | C=C1CC[C@H](OC(=O)CCCNC(=O)CCc2ccc(O)c([125I])c2)C/C1=C/C=C1\CCC[C@]2(C)[C@@H]([C@H](C)CCCC(C)(C)O)CC[C@@H]12 [n=3] |  |  | good results as compared with n=1
